Experimental data: patent US8637050B2, “Peptide vaccines against group A streptococci” (The United States of America, as represented by the …, priority 2001, dated 2014)
No end group written: not given here.

Tests used:
[1] = test system: anti-M protein antibodies in mouse sera; test: ELISA of sera of mice immunized s.c. with peptide in alum (immunogenicity); type: in vivo, mice (Swiss Webster)
Experimental: (§1) Levels of anti-M protein antibodies in mouse sera were determined by an enzyme-linked immunosorbent assay (ELISA) using either synthetic peptides or whole M protein as antigen. Microtiter plates (DYNEX Immulon 2 HB) were coated with 10 μg/ml antigen in 10 mM phosphate-buffered saline (PBS) at 4° C. overnight. Plates were rinsed three times with wash buffer (0.05% Tween 20 in 10 mM PBS, pH 7.2) and blocked with 1% BSA in PBS for one hour at 37° C. The appropriate test sera were applied at a starting dilution of 1:1000 and serially diluted two fold down the plate in PBS. Plates were incubated at 37° C. for 30 minutes and subsequently rinsed three times. Goat anti-rabbit or goat anti-mouse Ig-peroxidase conjugate diluted 1:10,000 in PBS was added to all wells and incubated for two hours at 37° C. Plates were rinsed three times with wash buffer and freshly prepared TMB peroxidase (Kirkegaard and Perry Laboratories) was added. Reactions were quenched with 0.18 M H2SO4 after 30 minutes at room temperature and OD450 was measured with a Labsystems Multiskan plate reader using Ascent software. ELISA titers are expressed as the reciprocal of the last dilution which gave a reading OD450>0.10.
(§2) Mice (6 week old female Swiss Webster, Harley-Sprague) were immunized subcutaneously (s.c.) with either the peptide in alum or alum alone for control groups. Peptides were rotated in the alum mixture for 2 hours at 4° C. and stored at 4° C. overnight prior to use.

[2] = test system: rabbit sera prepared against whole M protein; test: ELISA: peptide recognition by anti-M protein rabbit sera; type: binding
Experimental: Overlapping peptides representing each M type were assessed for their immunogenicity using ELISA and dot-immunoblot.
as §1
The immunoreactivity of several synthetic peptides was determined by ELISA using rabbit sera prepared against whole M protein. The synthetic peptides are representative of relatively small portions of the M protein N-terminus; therefore, it was advantageous to determine if the epitopes contained within particular peptides were immunoreactive with sera prepared against whole M protein. It was shown that the whole anti-M protein rabbit sera of the respective serotypes could bind to each of the synthetic peptides within that serotype. However, some peptides were more highly immunoreactive than others, thus being better suited for use in the animal studies.

[3] = test system: GAS M type M3; test: Opsonophagocytosis / bactericidal activity in vitro, GAS M type M3; type: cell-based, Group A streptococci
Experimental: (§3) Opsonophagocytosis assays were performed as previously described in Lancefield, R. C., Persistence of type-specific antibodies in man following infection with group A streptococci, 1959, J. Immunol., 89:307. Briefly, diluted serum (50 μl) was added to mid-log phase GAS (10^3 CFU) in Todd-Hewitt broth (50 μl) and whole, heparinized blood (500 μl) from a nonopsonic human donor. Mixtures were briefly vortexed and placed at 37° C. in a shaker for 3 hours. Dilutions were then plated on trypticase soy agar plates (5% sheep blood) to quantitate viable organisms. The % killing is expressed as [(CFU control-CFU test)/CFU control]×100.
(§4) Some of the peptides tested in the previous examples were tested for cross-type protection using the methods described above. […] The peptide tested and serotype against which it was tested is indicated.

[4] = test system: GAS M type M43; test: Opsonophagocytosis / bactericidal activity in vitro, heterologous GAS M type M43; type: cell-based, Group A streptococci
Experimental: as §3, §4

[5] = test system: streptococci (GAS); test: Nasopharyngeal colonization challenge in vaccinated mice; type: in vivo; details: vaccinated mice relative to alum-only control mice; nasal wash 24 hours after 10^4 CFU challenge
Experimental: as §2
Mice were challenged intranasally one week after the final booster injection was administered. Prior to being challenged, mice were anesthetized with a ketamine/xylazine mixture. Mice were then given 10^4-10^5 CFU (10 μl) of streptococci intranasally via a microliter pipette. They were sacrificed 24 hours after the challenge and the nasopharyngeal passages were washed with approximately 100 μl physiological saline which was collected and immediately placed on ice. Dilutions of the wash were then plated on trypticase soy agar plates (5% sheep blood) and incubated at 37° C. for 18 hours to quantitate viable organisms. Nasopharyngeal colonization in immunized mice was compared to non-immunized controls. Statistical analysis of the NP data was accomplished using the t-test and rank sum test.
Nasopharyngeal (NP) colonization challenge experiments were performed on mice vaccinated (s.c.) with either M3-1 or M3-2 peptide in alum in comparison to control animals which received alum only. The nasopharyngeal colonization challenge was performed by doing a nasal wash 24 hours after challenge. […]

[6] = test system: GAS; test: Opsonophagocytosis assay in vitro with sera of immunized mice; type: cell-based, Group A streptococci; details: human whole blood, 3 hours
Experimental: as §3
Each of the sera tested positive in the assay and was able to reduce the amount of viable bacteria relative to controls.

Sequence	immunoreactivity by ELISA using rabbit sera prepared against whole M protein [2]	also measured
CLEDLGQKFERLKQRSELYLQ [Peptide M12-3]	confirmed	ELISA (elicitation of antibodies) [1]: no
CNGDGNPREVIEDLAANNPAME [Peptide M1-4]		ELISA (elicitation of antibodies) [1]: no; immunoreactivity of peptide with anti-M protein rabbit sera (ELISA) ([2]; rabbit sera against whole M protein of the respective serotype): highest reactivity
CIQNIRLRHENKDLKARLENA [Peptide M1-2]	confirmed	ELISA (elicitation of antibodies) [1]: no
CDARSVNGEFPRHVKLKNEIE [Peptide M3-1]	confirmed	ELISA (elicitation of antibodies) [1]: yes; reduction of M3 type bacteria ([3]; in vitro versus control): significantly reduce; % CFU reduction ([3]; in vitro, GAS M type M3): 70-90%; reduction of M43 type bacteria ([4]; in vitro versus control): significantly reduce; % CFU reduction ([4]; in vitro, heterologous GAS M type M43): 80-90%; Reduction of colonization [5]: 87%; Opsono (in vitro) [6]: opsonophagocytize bacteria more effectively and yes
CLDQVTQLYNKHNSNYQQYSA [Peptide M3-4]	confirmed	ELISA (elicitation of antibodies) [1]: no
CTEVKAAGQSAPKGTNVSADL [Peptide M11-4]	confirmed	
CRSDARSVNGEFPRHVKLKNE [Peptide M3-9]	confirmed	
CELYNKIQELEEGKAELFDKLEK [Peptide M73-3]	confirmed	
CDSAWNWPKEYNALLKENEEL [Peptide M4-2]	confirmed	
CRATADNKDELIKRANGYEIQ [Peptide M18-4]	confirmed	
CRSVSTNSGSVSTPYNNLLNE [Peptide M92-2]	confirmed	
CLNQVTQLYTKHNSNYQQYNA [Peptide M3-6]	confirmed	
CDSSRDSSREVTNELTASMWK [Peptide M58-5]	confirmed	
CDSSREVTNELTASMWKAQAD [Peptide M58-1]	confirmed	
CESKLINTLTDENEKLREELQQ [Peptide M22-3]	confirmed	
CRVPGTLWLRQKEENDKLKLEK [Peptide M43-3]	confirmed	
CENPDKARELLNKYDVENSMLQ [Peptide M6-3]	confirmed	
CEYDDLLAKHGELLSEYDALK [Peptide M92-3]	confirmed	
CELTLQQKYDALTNENKSLRRE [Peptide M59-2]	confirmed	
CLAQVTQLYTKHNSNYQQYNA [Peptide M3-7]	confirmed	
CLNQVTQLHTKHNSNYQQYNA [Peptide M3-8]	confirmed	
CEQAKNNNGELTLQQKYDALT [Peptide M59-1]	confirmed	
CQLYTKHIYTKHNSNYQQYNAQ [Peptide M3-10]	confirmed	
CEELKVEREKYLSYADDKEKDPQ [Peptide M4-4]	confirmed	
CLNKLDKVEEEHKKDHEQLEK [Peptide M77-5]	confirmed	
CKKEAKLSEAELHDKIKNLEEEK [Peptide M2-2]	confirmed	
CKKEATKLSEAELYNKIQELEE [st2967-3]	confirmed	
CEEHEKVTQAREAVIREMQQR [Peptide M33-1]	confirmed	

Sequence	immunoreactivity by ELISA using rabbit sera prepared against whole M protein [2]	also measured
CAELYNKIQELEEGKAELFDK [st2967-6]	confirmed	
CRDITEAGVSKFWKSKFDAEQN [Peptide M82-2]	confirmed	
CIRNIRLRHENKDLKARLENA [Peptide M1-5]	confirmed	
CEEERTFTELPYEARYKAWKSE [Peptide M75-1]	confirmed	
CAEKQRLEDLGQKFERLKQRS [Peptide M12-2]	confirmed	ELISA (elicitation of antibodies) [1]: yes (weak)
CTEHEKLRDEYYTLIDAKLEEK [Peptide M28-4]	confirmed	
CTVTRGTVNDPQRAKETLDKYE [Peptide M5-6]	confirmed	
CELPYEARYKAWKSENDELREN [Peptide M75-2]	confirmed	
CDSDNSDNINRSVSVKDNEKE [Peptide M89-7]	confirmed	
CEEHPDVVAARESVLNNVR [Peptide M43-1]	confirmed	
CHPDVVAARESVLNNVRVPGT [Peptide M43-2]	confirmed	
CEEASNNGQLTLQHKNNALTSE [Peptide M94-1]	confirmed	
CELHNEIADLEEERGEHLDKID [Peptide M89-4]	confirmed	
CTVTRGTINDPQRAKEVIDKYE [Peptide M5-7]	confirmed	
CSDASLHNRITDLEEEREKLLNK [Peptide M77-2]	confirmed	
CKDEVLSKFSVPGHVWAHERE [Peptide M101-2]	confirmed	
CDENKTLREKQEEYITKIQNE [Peptide M11-3]	confirmed	
CQELEEGKAELFDKLEKVEEE [Peptide M73-6]	confirmed	
CNSKNPAPAVPVKKEATKLSE [st2967-5]	confirmed	
CDKLADAYNTLLTEHEKLRDE [Peptide M28-3]	confirmed	
CQAQEEALRDVLNNTPHNQLRD [Peptide M41-3]	confirmed	
CSVKDNEKELHNKIADLEEER [Peptide M89-3]	confirmed	
CTEHEKLRDEYYTLIDAKEEE [Peptide M28-5]	confirmed	
CKSTETSANGADKLADAYNTL [Peptide M28-2]	confirmed	
CSELYLQQYYDNKSNGYKGDW [Peptide M12-7]	confirmed	
CELHNKIADLEEERGAHLDKID [Peptide M89-5]	confirmed	
CNSMLQANNDKLTTENKNLTD [Peptide M6-5]	confirmed	
